Results: BindingDB's records for PubMed 34479036 (n/a, 2021)

Target: T1, Prostaglandin G/H synthase 2 (Homo sapiens, UniProt P35354)
T1 sequence (P35354 whole entry): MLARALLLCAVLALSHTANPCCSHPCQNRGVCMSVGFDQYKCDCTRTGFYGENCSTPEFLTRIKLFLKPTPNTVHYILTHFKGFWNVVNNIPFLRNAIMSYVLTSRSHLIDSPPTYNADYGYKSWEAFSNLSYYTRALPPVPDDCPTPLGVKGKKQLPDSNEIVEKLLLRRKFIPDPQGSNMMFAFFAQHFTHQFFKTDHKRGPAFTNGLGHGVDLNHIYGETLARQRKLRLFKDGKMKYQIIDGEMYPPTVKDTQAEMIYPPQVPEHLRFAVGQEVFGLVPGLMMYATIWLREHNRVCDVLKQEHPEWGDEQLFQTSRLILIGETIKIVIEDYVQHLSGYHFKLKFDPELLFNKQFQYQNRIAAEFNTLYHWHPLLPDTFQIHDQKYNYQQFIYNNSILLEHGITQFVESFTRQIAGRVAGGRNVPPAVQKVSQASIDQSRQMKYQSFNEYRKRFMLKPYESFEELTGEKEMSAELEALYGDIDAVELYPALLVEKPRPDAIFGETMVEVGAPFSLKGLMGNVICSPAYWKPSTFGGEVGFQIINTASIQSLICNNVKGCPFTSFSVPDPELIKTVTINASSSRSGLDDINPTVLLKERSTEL
Test: Inhibition of COX-2 (unknown origin) by enzyme immune assay

IC50: 88 nM
SMILES: C=C1CC[C@@H]2[C@H](CC2(C)C)C(=C)CC[C@H]1O
